Laboratory results as given in patent US6506876B1, “LTA4 hydrolase inhibitor pharmaceutical compositions and methods of use” (G.D. Searle & Co., priority 1994, dated 2003).

Tested on: LTB4 production in mouse blood (LTA4 hydrolase)
Assay: Ex vivo LTB4 production by calcium ionophore stimulated mouse blood after oral dosing
Assay type: in vivo
Conditions: mouse, oral gavage, 1 hour after administration of 10 mg/kg; read-out: Murine Ex Vivo LTB4 Inhibition % I LTB4
Experimental: Ex Vivo LTB4 and Thromboxane Production by Calcium Ionophore Stimulated Mouse Blood for LTA4 Hydrolase Inhibitor Activity
Leukotriene A4 hydrolase inhibitor compounds of the present invention were diluted to a predetermined concentration in phosphate buffered saline containing 2% DMSO and 1% Tween 80. The compounds were administered by oral gavage to adult male outbred mice weighing approximately 20-30 gm at a dose of 10 mg/kg body weight. (Compounds given at a dose of 50 mg/kg body weight are designtated in following Table by the symbol, *.) Sixty (60) minutes after administration of an LTA4 inhibitor compound of the invention, blood was collected (into heparin-containing tubes) from the retroorbital sinus. […] The mixture was incubated for 10 minutes at 37° C. in a humidified incubator. The reaction was terminated by centrifugation (833 g, 10 minutes at 4° C.). Supernatants were analyzed for LTB4 and thromboxane by commercially available enzyme-linked immunoassays (Caymen Chemical Co., Ann Arbor, Mich.] in accordance with the manufacturer's instructions. The percent inhibition was determined by comparison to animals treated identically except that the solution admininstered by oral gavage was devoid of inhibitor compound.

Going from `O=C(NC1CCN(CCOc2ccc(Cc3ccccc3)cc2)CC1)c1cc2ccccc2o1` [Example 248] to `CCOC(=O)CC1CCN(CCOc2ccc(Cc3ccccc3)cc2)CC1` [Example 301], the inhibition in vivo at 10 mg/kg rises from 56% to 81%.

Compared with `NC(=O)C1CCN(CCOc2ccc(Oc3ccccc3)cc2)CC1` [Example 252], `CCOC(=O)C1CCN(CCOc2ccc(Oc3ccccc3)cc2)CC1` [Example 254] is lower in inhibition in vivo at 10 mg/kg: 94% for the first, 87% for the second.

First: NC(=O)C1CCCN(CCOc2ccc(Oc3ccccc3)cc2)C1 (stereo not shown) [Example 253]
Second: CCOC(=O)C1CCCN(CCCOc2ccc(Cc3ccccc3)cc2)C1 (stereo not shown) [Example 269]
The inhibition in vivo at 10 mg/kg of the first is higher: 73% for the first, 50% for the second.

Going from `COC(=O)C1CN(CCCOc2ccc(Cc3ccccc3)cc2)CCC1=O` (stereo not shown) [Example 262] to `CC(C)(C)OC(=O)C1CCN(CCCOc2ccc(Cc3ccccc3)cc2)CC1` [Example 263], the inhibition in vivo at 10 mg/kg rises from 52% to 60%.

Going from `O=C(CCNCCOc1ccc(Cc2ccccc2)cc1)OCc1ccccc1` [Example 266] to `O=C(CCNCCCCOc1ccc(Cc2ccccc2)cc1)OCc1ccccc1` [Example 273], the inhibition in vivo at 10 mg/kg rises from 29% to 100%.

Going from `c1ccc(Cc2ccc3c(c2)CC(CN2CCCC2)O3)cc1` (stereo not shown) [Example 280] to `CC(=O)N1CCN(CC2Cc3cc(Cc4ccccc4)ccc3O2)CC1` (stereo not shown) [Example 294], the inhibition in vivo at 10 mg/kg rises from 33% to 57%.

Compared with `CCOC(=O)C1CCN(CC2Cc3cc(Cc4ccccc4)ccc3O2)CC1` (stereo not shown) [Example 282], `CNC(=O)C1CCN(CC2Cc3cc(Cc4ccccc4)ccc3O2)CC1` (stereo not shown) [Example 295] is higher in inhibition in vivo at 10 mg/kg: 57% for the first, 80% for the second.

First: NC(=O)C1CCN(CC2Cc3cc(Cc4ccccc4)cnc3O2)CC1 (stereo not shown) [Example 288]
Second: NC(=O)C1CCN(CC2CCc3cc(Cc4ccccc4)ccc3O2)CC1 (stereo not shown) [Example 293]
The inhibition in vivo at 10 mg/kg of the first is lower: 0% for the first, 93% for the second.

Compared with `NC(=O)C1CCN(CC2Cc3cc(Oc4ccccc4)ccc3O2)CC1` (stereo not shown) [Example 290], `CNC(=O)C1CCN(CC2Cc3cc(Oc4ccccc4)ccc3O2)CC1` (stereo not shown) [Example 296] is lower in inhibition in vivo at 10 mg/kg: 94% for the first, 72% for the second.

First: CCOC(=O)C1CCN(CC2Cc3cc(Oc4ccccc4)ccc3O2)CC1 (stereo not shown) [Example 291]
Second: CCOC(=O)C1CCN(CCOc2ccc(Cc3cccc(F)c3)cc2)CC1 [Example 309]
The inhibition in vivo at 10 mg/kg of the first is lower: 67% for the first, 96% for the second.

First: COC(=O)C1(O)CCN(CCOc2ccc(Cc3ccccc3)cc2)CC1 [Example 305]
Second: C[C@@H]1C[C@H](C(N)=O)C[C@H](C)N1CCOc1ccc(Cc2ccccc2)cc1 [Example 316]
The inhibition in vivo at 10 mg/kg of the first is lower: 42% for the first, 85% for the second.

Compared with `CCOC(=O)C1CCN(CCOc2ccc(Cc3cccs3)cc2)CC1` [Example 310], `CC(=O)N[C@H]1C[C@@H](C)N(CCOc2ccc(Cc3ccccc3)cc2)[C@@H](C)C1` [Example 315] is lower in inhibition in vivo at 10 mg/kg: 96% for the first, 53% for the second.

Same assay, conditions: mouse, oral gavage, 1 hour after administration of 50 mg/kg (*); read-out: Murine Ex Vivo LTB4 Inhibition % I LTB4

First: Fc1cccc(COc2ccc(OCCN3CCCC3)cc2)c1 [Example 211]
Second: c1csc(COc2ccc(OCCN3CCCC3)cc2)c1 [Example 215]
The inhibition in vivo at 50 mg/kg of the first is higher: 47% for the first, 33% for the second.

First: O=C(OCc1ccccc1)C1CCCN1CCCOc1ccc(Cc2ccccc2)cc1 (stereo not shown) [Example 258]
Second: c1ccc(Cc2ccc(OCCCN3CCCC3)cc2)cc1 [Example 259]
The inhibition in vivo at 50 mg/kg of the first is higher: 81% for the first, 35% for the second.

`COC(=O)CCNCCCOc1ccc(Cc2ccccc2)cc1` [Example 267] gave an inhibition in vivo at 50 mg/kg of 100%.

Target: T1, recombinant human LTA4 hydrolase (rhLTA4H) (Homo sapiens, UniProt P09960)
T1 sequence (P09960 1-611): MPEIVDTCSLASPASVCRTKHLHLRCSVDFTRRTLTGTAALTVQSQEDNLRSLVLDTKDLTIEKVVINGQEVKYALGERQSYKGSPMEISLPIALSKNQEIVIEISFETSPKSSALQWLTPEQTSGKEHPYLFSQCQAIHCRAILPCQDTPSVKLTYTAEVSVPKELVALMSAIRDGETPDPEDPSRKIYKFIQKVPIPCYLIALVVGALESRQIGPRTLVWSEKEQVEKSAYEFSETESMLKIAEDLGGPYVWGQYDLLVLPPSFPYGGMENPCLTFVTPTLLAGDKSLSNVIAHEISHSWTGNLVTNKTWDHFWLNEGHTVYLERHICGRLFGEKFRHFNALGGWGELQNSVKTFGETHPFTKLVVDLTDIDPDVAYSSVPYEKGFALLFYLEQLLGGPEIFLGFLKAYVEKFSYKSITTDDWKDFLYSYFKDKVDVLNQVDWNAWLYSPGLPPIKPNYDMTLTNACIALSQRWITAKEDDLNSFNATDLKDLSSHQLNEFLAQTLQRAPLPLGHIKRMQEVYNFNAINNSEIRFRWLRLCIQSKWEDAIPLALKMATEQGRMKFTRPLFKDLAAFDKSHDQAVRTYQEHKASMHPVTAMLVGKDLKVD
Assay: Recombinant human LTA4 hydrolase assay for LTA4 hydrolase inhibitor activity
Conditions: Recombinant Human LTA4 Hydrolase Assay IC50 LTA4H, recombinant hLTA4H

`Fc1cccc(COc2ccc(OCCN3CCCC3)cc2)c1` [Example 211] and `c1csc(COc2ccc(OCCN3CCCC3)cc2)c1` [Example 215] are within 1.5-fold of each other in IC50: 120 nM for the first, 85 nM for the second.

Compared with `O=C(NC1CCN(CCOc2ccc(Cc3ccccc3)cc2)CC1)c1cc2ccccc2o1` [Example 248], `CCOC(=O)CC1CCN(CCOc2ccc(Cc3ccccc3)cc2)CC1` [Example 301] is 22-fold higher in IC50: 200 nM for the first, 4500 nM for the second. The first is the more potent here.

Going from `NC(=O)C1CCN(CCOc2ccc(Oc3ccccc3)cc2)CC1` [Example 252] to `CCOC(=O)C1CCN(CCOc2ccc(Oc3ccccc3)cc2)CC1` [Example 254], the IC50 rises from 160 nM to 6000 nM (38-fold). The first is the more potent here.

Going from `NC(=O)C1CCCN(CCOc2ccc(Oc3ccccc3)cc2)C1` (stereo not shown) [Example 253] to `CCOC(=O)C1CCCN(CCCOc2ccc(Cc3ccccc3)cc2)C1` (stereo not shown) [Example 269], the IC50 rises from 910 nM to 2770 nM (3-fold).

First: O=C(OCc1ccccc1)C1CCCN1CCCOc1ccc(Cc2ccccc2)cc1 (stereo not shown) [Example 258]
Second: O=C(CCNCCOc1ccc(Cc2ccccc2)cc1)OCc1ccccc1 [Example 266]
The IC50 of the first is 5.2-fold lower: 1250 nM for the first, 6500 nM for the second. The first is the more potent here.

Going from `c1ccc(Cc2ccc(OCCCN3CCCC3)cc2)cc1` [Example 259] to `CC(C)(C)OC(=O)C1CCN(CCCOc2ccc(Cc3ccccc3)cc2)CC1` [Example 263], the IC50 rises from 100 nM to 4500 nM (45-fold).

Going from `COC(=O)C1CN(CCCOc2ccc(Cc3ccccc3)cc2)CCC1=O` (stereo not shown) [Example 262] to `COC(=O)C1(O)CCN(CCOc2ccc(Cc3ccccc3)cc2)CC1` [Example 305], the IC50 falls from 220 nM to 10 nM (22-fold). The second is the more potent here.

Going from `COC(=O)CCNCCCOc1ccc(Cc2ccccc2)cc1` [Example 267] to `O=C(CCNCCCCOc1ccc(Cc2ccccc2)cc1)OCc1ccccc1` [Example 273], the IC50 rises from 170 nM to 610 nM (3.6-fold).

First: c1ccc(Cc2ccc3c(c2)CC(CN2CCCC2)O3)cc1 (stereo not shown) [Example 280]
Second: CC(=O)N1CCN(CC2Cc3cc(Cc4ccccc4)ccc3O2)CC1 (stereo not shown) [Example 294]
The IC50 of the first is 10-fold lower: 11 nM for the first, 110 nM for the second. The first is the more potent here.

Going from `CCOC(=O)C1CCN(CC2Cc3cc(Cc4ccccc4)ccc3O2)CC1` (stereo not shown) [Example 282] to `CNC(=O)C1CCN(CC2Cc3cc(Cc4ccccc4)ccc3O2)CC1` (stereo not shown) [Example 295], the IC50 falls from 3700 nM to 440 nM (8.4-fold).

`NC(=O)C1CCN(CC2Cc3cc(Cc4ccccc4)cnc3O2)CC1` (stereo not shown) [Example 288] and `NC(=O)C1CCN(CC2CCc3cc(Cc4ccccc4)ccc3O2)CC1` (stereo not shown) [Example 293] are within 1.5-fold of each other in IC50: 700 nM for the first, 480 nM for the second.

First: NC(=O)C1CCN(CC2Cc3cc(Oc4ccccc4)ccc3O2)CC1 (stereo not shown) [Example 290]
Second: CNC(=O)C1CCN(CC2Cc3cc(Oc4ccccc4)ccc3O2)CC1 (stereo not shown) [Example 296]
The IC50 of the first is 1.6-fold lower: 450 nM for the first, 710 nM for the second.

First: CCOC(=O)C1CCN(CC2Cc3cc(Oc4ccccc4)ccc3O2)CC1 (stereo not shown) [Example 291]
Second: CCOC(=O)C1CCN(CCOc2ccc(Cc3cccc(F)c3)cc2)CC1 [Example 309]
The IC50 of the first is 3.2-fold higher: 8000 nM for the first, 2500 nM for the second.

First: CCOC(=O)C1CCN(CCOc2ccc(Cc3cccs3)cc2)CC1 [Example 310]
Second: C[C@@H]1C[C@H](C(N)=O)C[C@H](C)N1CCOc1ccc(Cc2ccccc2)cc1 [Example 316]
The IC50 of the first is 19-fold higher: 930 nM for the first, 50 nM for the second.

Compound `CC(=O)N[C@H]1C[C@@H](C)N(CCOc2ccc(Cc3ccccc3)cc2)[C@@H](C)C1` [Example 315] has an IC50 of 163 nM.
